Measured values from article PMC5602572, “New carboxamide derivatives bearing benzenesulphonamide as a selective COX-II inhibitor: Design, synthesis and structure-activity relationship” (PLoS ONE, 2017).
Like-named read-outs stand apart in the source and are kept apart here.

Legend:
[1] = Determination of LD50 in mice; conditions: mouse, in vivo, ip; male mice, intraperitoneal, observation 72 h
Procedure: Male mice were divided into various groups and test compounds were administered in various doses intraperitoneally. […] All behavioral changes and deaths during the observation periods were recorded. The percentage of death at each dose level was then calculated, converted to probits and the LD50 (μM/kg) values were calculated. To observe the health status of the mice, they were monitored 4 times a day. […] For the purpose of ameliorating the suffering of the dying mice, CO2 euthanasia was applied. All the dead mice were disposed in bio-safety containers in accordance with local standard protocols. The mortality rate in each group was calculated according to the formula: Mortality rate(%)=(the number of dead mice/the number of mice in the group)×100.

[2] = system: carrageenan induced rat paw edema; experiment: carrageenan-induced rat paw edema bioassay; assay type: in vivo; conditions: % inhibition of carrageenan induced rat paw edema, intraperitoneal; for Anti-inflammatory activity, 0.5 h (%): 0.5 h after treatment; for Anti-inflammatory activity, 1 h (%): 1 h after treatment; for Anti-inflammatory activity, 2 h (%): 2 h after treatment; for Anti-inflammatory activity, 3 h (%): 3 h after treatment
Procedure: Male albino rats weighing 300 g where purchased from the Department of Zoology and Environmental Biology, University of Nigeria, Nsukka and kept at room temperature in a light controlled animal house. They were fasted with free access to water at least 12 h prior to the experiments. […] The positive control received celecoxib while the negative control received only the vehicle. Edema was produced by injecting 0.2 mL of a solution of 1% carrageenan in the hind paw. The rats were injected intraperitoneally with 1 mL suspension in 0.5% methylcellulose of the tested compounds and reference drug. Paw volume was measured by water displacement with a plethysmometer (UGO BASILE) before, 30 min, 1 h, 2 h and 3 h after treatment. The percentage was calculated by the following equation [25].
Anti-inflammatory activity (%) = (1-D/C)[…], where D represents the difference in paw volume before and after drug administration to the rats and C represents the difference of volume in the control groups. The approval for the use of animal was obtained from the University of Nigeria committee on experimental animal use. No sign of death was observed during the experiment.

COX-1 = biological target: T1, COX-1 (Ovis aries, UniProt P05979); experiment: In vitro cyclooxygenase inhibitory assay (Cayman colorimetric COX (ovine) inhibitor screening kit), COX-1; assay type: biochemical; conditions: read-out: COX-1 (%) inhibition
T1 construct: purchased Cayman chemicals, USA
T1 sequence (P05979 25-600): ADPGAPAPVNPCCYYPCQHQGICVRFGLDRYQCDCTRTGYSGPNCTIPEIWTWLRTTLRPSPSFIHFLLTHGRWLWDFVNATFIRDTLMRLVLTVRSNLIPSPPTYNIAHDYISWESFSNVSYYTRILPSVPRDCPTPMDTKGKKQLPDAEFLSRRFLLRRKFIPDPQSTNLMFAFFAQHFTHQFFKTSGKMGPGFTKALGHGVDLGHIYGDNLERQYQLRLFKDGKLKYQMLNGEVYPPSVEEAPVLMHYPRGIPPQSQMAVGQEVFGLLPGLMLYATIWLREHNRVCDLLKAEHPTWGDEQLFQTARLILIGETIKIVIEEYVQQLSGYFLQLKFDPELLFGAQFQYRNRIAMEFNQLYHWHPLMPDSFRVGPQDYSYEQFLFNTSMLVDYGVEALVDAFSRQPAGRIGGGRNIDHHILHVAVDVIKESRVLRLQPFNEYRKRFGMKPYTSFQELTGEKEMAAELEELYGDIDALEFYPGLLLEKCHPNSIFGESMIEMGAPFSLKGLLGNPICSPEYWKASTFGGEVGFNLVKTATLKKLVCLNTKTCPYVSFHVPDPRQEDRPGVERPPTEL
Procedure: (§1) The calculations were performed as per the kit guidelines.

COX-2 = biological target: T2, COX-2 (Ovis aries, UniProt P79208); experiment: In vitro cyclooxygenase inhibitory assay (Cayman colorimetric COX (ovine) inhibitor screening kit), COX-2; assay type: biochemical; conditions: for inhibition at 2 µM: read-out: COX-2 (%) inhibition; for S I (selectivity COX-2/COX-1): ratio of % inhibition COX-2/COX-1 at 2.0 μM
T2 construct: purchased Cayman chemicals, USA
T2 sequence (P79208 17-603): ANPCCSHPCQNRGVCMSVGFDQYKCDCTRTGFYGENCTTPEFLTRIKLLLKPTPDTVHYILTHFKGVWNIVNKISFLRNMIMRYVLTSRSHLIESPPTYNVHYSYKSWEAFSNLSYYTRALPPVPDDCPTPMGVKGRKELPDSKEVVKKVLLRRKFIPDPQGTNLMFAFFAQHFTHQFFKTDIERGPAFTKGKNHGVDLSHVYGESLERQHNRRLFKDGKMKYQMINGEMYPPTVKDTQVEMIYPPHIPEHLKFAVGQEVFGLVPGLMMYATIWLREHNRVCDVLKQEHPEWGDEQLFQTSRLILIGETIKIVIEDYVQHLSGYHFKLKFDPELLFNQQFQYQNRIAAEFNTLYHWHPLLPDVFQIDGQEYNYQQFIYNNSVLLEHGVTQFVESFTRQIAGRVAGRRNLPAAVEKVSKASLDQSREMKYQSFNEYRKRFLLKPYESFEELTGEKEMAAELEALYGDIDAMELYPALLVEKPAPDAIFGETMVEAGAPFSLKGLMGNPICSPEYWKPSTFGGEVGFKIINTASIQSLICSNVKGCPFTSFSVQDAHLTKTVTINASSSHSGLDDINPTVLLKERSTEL
Procedure: as §1

SMILES	LD50 at 72 h [1] [µmol/kg]	Anti-inflammatory activity, 0.5 h (%) [2] [%]	Anti-inflammatory activity, 1 h (%) [2] [%]	Anti-inflammatory activity, 2 h (%) [2] [%]	Anti-inflammatory activity, 3 h (%) [2] [%]	inhibition at 2 µM (COX-1; concentration of 2.0 μM) [%]	inhibition at 2 µM (COX-2; concentration of 2.0 μM) [%]	S I (selectivity COX-2/COX-1) (COX-2)	inhibition at 2 µM (COX-1) [%]	inhibition at 2 µM (COX-2) [%]
Cc1ccc(-c2cc(C(F)(F)F)nn2-c2ccc(S(N)(=O)=O)cc2)cc1 [Celecoxib, celecoxib, reference compound]	9.8	56.92	63.53	64.84	82.60	–	–	–	–	–
Cc1ccnc(NC(=O)CN(C(=O)c2ccccc2)S(=O)(=O)c2ccc([N+](=O)[O-])cc2)c1 [Compound 7a, N-(4-methylpyridin-2-yl)-2-[N-(4-nitrobenzenesulfonyl)-1-phenylformamido]acetamide]	12.9	24.62	18.82	14.24	11.85	14	49	3.5	–	–
Cc1ccnc(NC(=O)[C@H](Cc2ccccc2)N(C(=O)c2ccccc2)S(=O)(=O)c2ccc([N+](=O)[O-])cc2)c1 [Compound 7b, (2S)-N-(4-methylpyridin-2-yl)-2-[N-(4-nitrobenzenesulfonyl)-1-phenylformamido]-3-phenyl propanamide]	14.2	32.31	17.06	17.03	12.96	8	52	6.5	–	–
Cc1ccnc(NC(=O)[C@H](Cc2cc3ccccc3[nH]2)N(C(=O)c2ccccc2)S(=O)(=O)c2ccc([N+](=O)[O-])cc2)c1 [Compound 7c, (2S)-3-(1H-indol-2-yl)-N-(4-methylpyridin-2-yl)-2-[N-(4-nitrobenzenesulfonyl)-1-phenylformamido]propanamide]	8.3	49.23	62.35	75.75	88.89	–	–	–	2	70
Cc1ccnc(NC(=O)[C@H](CC(C)C)N(C(=O)c2ccccc2)S(=O)(=O)c2ccc([N+](=O)[O-])cc2)c1 [Compound 7d, (2S)-4-Methyl-N-(4-methylpyridin-2-yl)-2-[N-(4-nitrobenzenesulfonyl)-1-phenylformamido]pentanamide]	12.6	52.31	17.65	10.54	10.15	10	20	2.00	–	–
CCC(C)[C@@H](C(=O)Nc1cc(C)ccn1)N(C(=O)c1ccccc1)S(=O)(=O)c1ccc([N+](=O)[O-])cc1 (stereo partly drawn) [Compound 7e, (2S)-3-Methyl-N-(4-methylpyridin-2-yl)-2-[N-(4-nitrobenzenesulfonyl)-1-phenylformamido]pentanamide]	13.1	26.15	25.88	19.38	16.05	4	17	4.25	–	–
Cc1ccnc(NC(=O)[C@H](C(C)C)N(C(=O)c2ccccc2)S(=O)(=O)c2ccc([N+](=O)[O-])cc2)c1 [Compound 7f, (2S)-3-Methyl-N-(4-methylpyridin-2-yl)-2-[N-(4-nitrobenzenesulfonyl)-1-phenylformamido]butanamide]	15.8	24.62	17.65	14.84	1.85	15	54	3.6	–	–
Cc1ccnc(NC(=O)[C@@H]2CC(O)CN2S(=O)(=O)c2ccc([N+](=O)[O-])cc2)c1 (stereo partly drawn) [Compound 7g, (2S)-4-Hydroxy-N-(4-methylpyridin-2-yl)-1-(4-nitrobenzenesulfonyl)pyrrolidine-2-carboxamide]	9.9	46.92	53.53	58.84	–	–	–	–	18	20
Cc1ccnc(NC(=O)[C@@H]2CCCN2S(=O)(=O)c2ccc([N+](=O)[O-])cc2)c1 [Compound 7h, (2S)-N-(4-methylpyridin-2-yl)-1-(4-nitrobenzenesulfonyl)pyrrolidine-2-carboxamide]	10.7	27.69	17.06	16.59	16.05	–	–	–	30	13
Cc1ccc(S(=O)(=O)N(CC(=O)Nc2cc(C)ccn2)C(=O)c2ccccc2)cc1 [Compound 7i, 2-[N-(4-methylbenzenesulfonyl)-1-phenylformamido]-N-(4-methylpyridin-2-yl)acetamide]	18.2	24.62	23.53	16.78	12.47	3	18	6.00	–	–
Cc1ccc(S(=O)(=O)N(C(=O)c2ccccc2)[C@@H](Cc2ccccc2)C(=O)Nc2cc(C)ccn2)cc1 [Compound 7j, (2S)-2-[N-(4-methylbenzenesulfonyl)-1-phenylformamido]-N-(4-methylpyridin-2-yl)-3-phenyl propanamide]	17.6	41.54	40.59	39.84	36.42	10	30	3.00	–	–
Cc1ccc(S(=O)(=O)N(C(=O)c2ccccc2)[C@@H](Cc2cc3ccccc3[nH]2)C(=O)Nc2cc(C)ccn2)cc1 [Compound 7k, (2S)-3-(1H-indol-2-yl)-2-[N-(4-methylbenzenesulfonyl)-1-phenylformamido]-N-(4-methylpyridin-2-yl)propanamide]	9.2	42.12	56.12	70.89	–	3	56	18.67	–	–
